Patent US9937214B2, “Lactobacillus crispatus and application thereof” (priority 2013, dated 2018)
Positions of bridges follow the written chain, without caps; N, C: chain ends. Non-standard residues stand in square brackets, D forms with d. Residues, ends and D or L forms follow the SMILES beside them. *: point of attachment. Ileψ(thiazoline)Cys = CC[C@H](C)[C@H](N)C1=N[C@H](C(=O)*)CS1; dOrn = NCCC[C@@H](N)C(=O)O

System: Lactobacillus crispatus 262-1
Test: Antibiotic sensitivity test, agar-diffusion paper-disc method; on Inhibition zone diameter: test concentration or dose not given here
Format: cell-based
Conditions: for Inhibition zone diameter: paper content/sheet per antibiotic as in Table 3; for Sensitivity determination: T0 generation, three levels: sensitivity, mediation, drug resistance, criteria of reference bacteria; for Sensitivity determination (passage stability test): embodiment 6

Row | Compound | Inhibition zone diameter (T0 generation of the strain) | Sensitivity determination | Inhibition zone diameter (T30 generation of the strain) | Inhibition zone diameter (T50 generation of the strain) | Sensitivity determination (passage stability test) | other results
1 | CC1(C)S[C@@H]2[C@H](NC(=O)[C@H](N)c3ccccc3)C(=O)N2[C@H]1C(=O)O [Ampicillin] | 24 mm | Sensitivity | 24 mm | 25 mm | mediation | Sensitivity determination (listed as ampicillin): sensitivity
2 | Cc1ncc([N+](=O)[O-])n1CCO [Metronidazole] | 0 mm | drug resistance | 0 mm | 0 mm | drug resistance | –
3 | CN(C)[C@@H]1C(O)=C(C(N)=O)C(=O)[C@@]2(O)C(O)=C3C(=O)c4c(O)cccc4[C@@](C)(O)[C@H]3C[C@@H]12 [Tetracycline] | 38 mm | – | 40 mm | 39 mm | – | –
4 | CCC[C@@H]1C[C@@H](C(=O)N[C@@H]([C@H]2O[C@H](SC)[C@H](O)[C@@H](O)[C@H]2O)[C@H](C)Cl)N(C)C1 [Clindamycin] | 35 mm | – | 37 mm | 36 mm | – | –
5 | Cc1onc(-c2ccccc2)c1C(=O)N[C@@H]1C(=O)N2[C@@H]1SC(C)(C)[C@@H]2C(=O)O [oxacillin] | 9 mm | Mediation | 10 mm | 9 mm | mediation | –
6 | CC[C@H]1OC(=O)[C@H](C)[C@@H](O[C@H]2C[C@@](C)(OC)[C@@H](O)[C@H](C)O2)[C@H](C)[C@@H](O[C@@H]2O[C@H](C)C[C@H](N(C)C)[C@H]2O)[C@](C)(O)C[C@@H](C)C(=O)[C@H](C)[C@@H](O)[C@]1(C)O [Erythromycin] | 36 mm | Sensitivity | 41 mm | 39 mm | – | Sensitivity determination (listed as erythromycin): sensitivity
7 | CCN1CCN(C(=O)N[C@@H](C(=O)N[C@@H]2C(=O)N3[C@@H]2SC(C)(C)[C@@H]3C(=O)O)c2ccccc2)C(=O)C1=O [Piperacillin] | 35 mm | Sensitivity | 37 mm | 35 mm | – | Sensitivity determination (listed as piperacillin): sensitivity
8 | C[C@@H](O)[C@H]1C(=O)N2C(C(=O)O)=C(SCCN=CN)C[C@H]12 [Imipenem] | 40 mm | – | 40 mm | 40 mm | – | –
9 | Penicillin | 24 mm | Mediation | 25 mm | 24 mm | mediation | Sensitivity determination (listed as penicillin): mediation
10 | O=C(N[C@H](CO)[C@H](O)c1ccc([N+](=O)[O-])cc1)C(Cl)Cl [Chloramphenicol] | 35 mm | Sensitivity | 36 mm | 35 mm | – | Sensitivity determination (listed as chloromycetin): sensitivity
11 | NC[C@H]1O[C@H](O[C@H]2[C@H](O)[C@@H](O[C@H]3O[C@H](CO)[C@@H](O)[C@H](N)[C@H]3O)[C@H](N)C[C@@H]2N)[C@H](O)[C@@H](O)[C@@H]1O [Kanamycin] | 0 mm | – | 0 mm | 0 mm | – | –
12 | CC[C@H]1OC(=O)[C@H](C)[C@@H](O[C@H]2C[C@@](C)(OC)[C@@H](O)[C@H](C)O2)[C@H](C)[C@@H](O[C@@H]2O[C@H](C)C[C@H](N(C)C)[C@H]2O)[C@](C)(O)C[C@@H](C)CN(C)[C@H](C)[C@@H](O)[C@]1(C)O [Azithromycin] | 31 mm | Sensitivity | 31 mm | 30 mm | – | Sensitivity determination (listed as azithromycin): sensitivity
13 | CN[C@H](CC(C)C)C(=O)N[C@H]1C(=O)N[C@@H](CC(N)=O)C(=O)N[C@H]2C(=O)N[C@H]3C(=O)N[C@H](C(=O)N[C@H](C(=O)O)c4cc(O)cc(O)c4-c4cc3ccc4O)[C@H](O)c3ccc(c(Cl)c3)Oc3cc2cc(c3O[C@@H]2O[C@H](CO)[C@@H](O)[C@H](O)[C@H]2O[C@H]2C[C@](C)(N)[C@H](O)[C@H](C)O2)Oc2ccc(cc2Cl)[C@H]1O [Vancomycin] | 26 mm | Sensitivity | 27 mm | 26 mm | mediation | Sensitivity determination (listed as vancomycin): sensitivity
14 | CC1(C)S[C@@H]2[C@H](NC(=O)[C@H](N)c3ccc(O)cc3)C(=O)N2[C@H]1C(=O)O [Amoxicillin] | 20 mm | Sensitivity | 24 mm | 23 mm | mediation | Sensitivity determination (listed as amoxicillin): sensitivity
15 | CC[C@H](C)[C@H](N)C1=N[C@H](C(=O)N[C@@H](CC(C)C)C(=O)N[C@H](CCC(=O)O)C(=O)N[C@H](C(=O)N[C@H]2CCCCNC(=O)[C@H](CC(N)=O)NC(=O)[C@@H](CC(=O)O)NC(=O)[C@H](Cc3cnc[nH]3)NC(=O)[C@@H](Cc3ccccc3)NC(=O)[C@H]([C@@H](C)CC)NC(=O)[C@@H](CCCN)NC2=O)[C@@H](C)CC)CS1 [Bacitracin] ({Ileψ(thiazoline)Cys}-L[dE]IK[dOrn]I[dF]H[dD]N; lactam 4-C) | 0 mm | drug resistance | 0 mm | 0 mm | drug resistance | –
16 | Gentamicin | 0 mm | drug resistance | 0 mm | 0 mm | drug resistance | –
17 | CO/N=C(\C(=O)N[C@@H]1C(=O)N2C(C(=O)O)=C(CSc3nc(=O)c(=O)[nH]n3C)CS[C@H]12)c1csc(N)n1 [Ceftriaxone] | 29 mm | Sensitivity | 31 mm | 30 mm | mediation | Sensitivity determination (listed as ceftriaxone): sensitivity
